Assay results taken from patent US20240317866A1, “Use of Anti-EGFR/Anti-Met Antibody to Treat Gastric or Esophageal Cancer” (Janssen Biotech, Inc., priority 2022, published 2024).

Key:
Assay type in all cases: in vivo, BALB/c nude mice
GA0046 gastric PDX = assay: Gastric PDX model GA0046, tumor growth inhibition
GA0152 gastric PDX = assay: Gastric PDX model GA0152, tumor growth inhibition; conditions: amivantamab 10 mg/kg i.p. BIW, 5-FU 10 mg/kg i.p. QD 5 days/week, cisplatin 4 mg/kg i.p. QW, paclitaxel 15 mg/kg i.v. QW, vs isotype control
Experimental: (§1) Tumor fragments from stock tumor bearing mice were harvested and inoculated into BALB/c nude mice. Each mouse was inoculated subcutaneously in the right flank with indicated tumor fragments (2-3 mm in diameter) for tumor development.
(§2) After establishment of palpable lesions, the tumor growth was measured twice weekly. Once the mean tumor volume reached approximate 150 mm^3, animals were randomly allocated to relevant study groups with 8 mice per group. The randomization was performed according to the tumor size of each group, and the day of randomization was denoted as Day0. The treatments were started on the same day of randomization according to the dosing regimen in Table 18 where appropriate.
(§3) The study endpoints were to compare the tumor growth in each group at the end of treatments, and the subsequent tumor outgrowth after dosing stopped. The tumor size was measured twice weekly in two dimensions using a caliper, and the tumor volume was expressed in mm3 using the formula V=0.5×L×W^2, where V was tumor volume, L was tumor length (longest tumor dimension) and W was tumor width (longest tumor dimension perpendicular to L).
(§4) Tumor growth inhibition (TGI %) was an indication of anti-tumor activities, and calculated as TGI %=(1−(T−T0)/(C−C0))×100%, T and C were the mean tumor volume (TV) of treated and control groups, respectively on the day when mean TV of control group were terminated per study design.

GA3121 gastric PDX = assay: Gastric PDX model GA3121, tumor growth inhibition; conditions: amivantamab 10 mg/kg i.p. BIW, paclitaxel 10 mg/kg i.v. QW, vs isotype control
Experimental: as §1, §2
as §3, with “L). […]” for “L).”

GA0075 gastric PDX = assay: Gastric PDX model GA0075, tumor growth inhibition; conditions: amivantamab 10 mg/kg i.p. BIW, 5-FU 10 mg/kg i.p. QD 5 days/week, cisplatin 4 mg/kg i.p. QW, paclitaxel 15 mg/kg i.v. QW, vs isotype control, Day28
Experimental: as §1, §2, §3, §4

Row | SMILES | effect on tumor growth (in words) (GA0046 gastric PDX; amivantamab 10 mg/kg BIW single agent, capmatinib 10 mg/kg BID) | TGI% (GA0046 gastric PDX; amivantamab 10 mg/kg i.p. BIW, capmatinib 10 mg/kg p.o. BID, vs isotype control, Day28) [%] | TGI% (GA0152 gastric PDX) [%] | TGI% (GA0152 gastric PDX; listed as paxlitaxel) [%] | TGI% (GA3121 gastric PDX) [%] | TGI% (GA0075 gastric PDX) [%]
1 | CNC(=O)c1ccc(-c2cnc3ncc(Cc4ccc5ncccc5c4)n3n2)cc1F [capmatinib, reference compound] | no effect on tumor growth | 5.93 | – | – | – | –
2 | CC(=O)O[C@H]1C(=O)[C@@]2(C)[C@H]([C@H](OC(=O)c3ccccc3)[C@]3(O)C[C@H](OC(=O)[C@H](O)[C@@H](NC(=O)c4ccccc4)c4ccccc4)C(C)=C1C3(C)C)[C@]1(OC(C)=O)CO[C@@H]1C[C@@H]2O [paclitaxel, reference compound] | – | – | 27.29 | 27.29 | −12.99 | 66.09
